In patent US20110144127A1, “AGENTS FOR TREATMENT OF GLAUCOMATOUS RETINOPATHY AND OPTIC NEUROPATHY” (ALCON INC., priority 2003, published 2011):

Columns and labels:
[1] = tested on: cultured adult rat retinal ganglion cells; assay: Glutamate-induced toxicity in cultured adult rat retinal ganglion cells (survival by counting Thy-1-positive healthy cells); type: cell-based
Experimental: Cells were treated with the indicated compounds for 3 days. Survival was assayed by counting Thy-1-positive healthy cells. The asterisk * represents a significant difference from the control values by one-way ANOVA analysis of variance between groups, then Dunnett's test.
Adult Sprague-Dawley rats were euthanized by CO2 asphyxiation. Their eyes were enucleated and placed in NEUROBASAL™ medium (Gibco, Gaithersburg, Md.). The retina from each eye was detached and isolated. Retinal cells were dissociated by combining up to 20 retinae with 5 mL of papain solution containing 10 mg papain, 2 mg DL-cysteine, and 2 mg bovine serum albumin in 5 ml of NEUROBASAL™ medium, for 25 min at 37° C., then washed 3 times with 5 mL RGC medium (NEUROBASAL™) medium supplemented as cited in Example 2 and with 1% fetal calf serum. Retinal pieces were triturated by passing through a fire-polished disposable pipet several times until cells were dispersed. The cell suspension was placed onto a poly-D-lysine- and laminin-coated 8-well chambered culture slide. […] The cells were then cultured at 95% air/5% CO2 at 37° C. for three days.
At the end of the incubation period, the cells were fixed and labeled for Thy-1, a RGC marker, by immunocytochemistry. Cell survival was quantified by manually counting Thy-1-positive healthy cells in each well.

[2] = tested on: quinone reductase, glutathione-S-transferase, and glutathione reductase; conditions: various cell lines including human adult retinal pigment epithelial cells; cited from earlier work

N[C@@H](CCC(=O)O)C(=O)O [glutamate]
reduction of the surviving cells ([1]; glutamate 100 μM for 3 days, adult rat RGC): 40-60%

C[S+]([O-])CCCCN=C=S (stereo not drawn) [sulforaphane]
protection from glutamate-induced toxicity (survival of Thy-1-positive healthy cells) ([1]; sulforaphane 0.5 μM with glutamate 100 μM, 3 days, adult Sprague-Dawley rat RGC): prevented such toxicity
induction of detoxification enzymes [2]: known to induce quinone reductase, glutathione-S-transferase, and glutathione reductase
